# Data published in US20110009628A1, “Compounds and Compositions for Modulating Lipid Levels and Methods of Preparing Same” (priority 2009, published 2011).
# Structures can show the parent of a compound that is named as a salt. Where two headings read alike, the source gives them in different places.
# Legend:
# [1] = Pharmacokinetics of Compound 141 in male Wistar rats, intravenous and oral; format: in vivo; conditions: for MRT last: read-out: MRT(0-t); for MRT inf: read-out: MRT(0-∞)
# Method: For intravenous administration, blood samples were collected via retro-orbital puncture into heparinized tubes at pre-dose and 0.083, 0.25, 0.5, 1, 2, 6, 8, and 24 hours (hr) post-dose.
# For oral administration, blood samples were collected at following time points: 0, 0.167, 0.417, 0.75, 1, 2, 4, 6, 8, and 24 hr. After sample collection, plasma samples were stored at −20° C. until bioanalysis. Concentrations of 72(+) and 72(−) in plasma samples were determined using a high performance liquid chromatography/mass spectrometry (HPLC/MS/MS) method.
# *F(%)=(Doseiv×AUCoral(0-t))/(Doseoral×AUCiv(0-t))×100%. […]
# The pharmacokinetic profile and bioavailability of Compound 141 (phosphate salt of Compound 127) in male Wistar rats following single intravenous (iv) and oral administration (p.o.) were measured according to the procedures of Example 4 and are summarized in Table 11. The pharmacokinetic profile of Compound 162 in male Golden Syrian masters following oral administration (pox) is summarized in Table 12.
# [2] = tested on: LDLR mRNA expression in HepG2 cells; test: LDLR mRNA expression in HepG2 cells, quantitative real-time RT-PCR (Example 7); format: cell-based, human; conditions: dose less than or equal to 10 μM, 24 hours
# Method: In yet another experiment, HepG2 cells were treated with various compounds for 24 hours at the indicated doses. Total RNA was isolated and 2 μg was used to generate cDNA in a reaction containing random primers and M-MLV at 37° C. for 1 hour in a volume of 25 μL. Real-time PCR was performed on the cDNA using MCEP REALPLEX 2 SYSTEM (Eppendorf) and Universal MasterMix (Applied Biosystems). Human LDLR and GAPDH Pre-Developed TaqMan Assay Reagents (Applied Biosystems) were used to assess the levels of mRNA expressions in HepG2. The levels of LDLR mRNA were normalized to that of GAPDH. Each RNA samples was assayed in triplicate. The abundance of LDLR mRNA in untreated cells was defined as 1, and the amounts of LDLR mRNA from compound-treated cells were plotted relative to that value in FIG. 2B. The data shown are mean±s.d.
# Activities of some compounds of Formulas I, II and EE on LDLR mRNA expression were determined. HepG2 cells were treated with new compounds individually at a dose less than or equal to 10 μM for 24 hours. […] In these experiments, berberine chloride was included for comparison.
# [3] = tested on: LDLR ligand uptake activity in HepG2 cells; test: DiI-LDL uptake in HepG2 cells (Example 6); format: cell-based, human; conditions: 20 hours, A, compound dose ≦10 μM; also: key: +: slightly increased fluorescent intensity over control; ++: modestly increased fluorescent intensity over control; +++: strongly increased fluorescent intensity over control
# Method: HepG2 cells (2×10^5 cells/well) in 24-well culture plates were treated with various compounds at indicated concentrations for 20 hours. The fluorescent 1.1′-dioctadecyl-3,3,3′,3′-tetramethylindocarbocyanin perchlorate (DiI-LDL) (Biomedical Technologies, Stoughton, Mass.) at a concentration of 2 μg/mL was added to cells at the end of treatment. After 4 hours, the medium was removed, cells were washed with cold PBS, and were examined immediately under a fluorescent microscope (Nikon) at 200× amplification. The fluorescent intensity in compound-treated cells was compared to that in untreated control cells. […] In these experiments berberine chloride was used for comparison.
# [4] = tested on: PCSK9 mRNA expression in HepG2 cells; test: PCSK9 mRNA expression in HepG2 cells, quantitative real-time RT-PCR (Example 12); format: cell-based, human; conditions: 24 hours
# Method: (§1) The effects of compounds on the mRNA expressions of LDLR and PCSK9 were examined using quantitative real-time RT-PCR assays. HepG2 cells were treated with various compounds at 10 and 40 uM concentrations for 24 hours. Total RNA was isolated and […] was used to generate cDNA in a reaction containing random primers and M-MLV at 37° C. for 1 h in a volume of 25 μL. Real-time PCR was performed on the cDNA using MCEP REALPLEX 2 SYSTEM (Eppendorf) and Universal MasterMix (Applied Biosystems). Human LDLR, PCSK9, and GAPDH Pre-Developed TaqMan Assay Reagents (Applied Biosystems) were used to assess the levels of mRNA expressions in HepG2. The levels of LDLR and PCSK9 mRNA were normalized to that of GAPDH. Each RNA samples was assayed in duplicate. The fold activity was calculated by dividing mRNA abundance in compound treated cells with that of control.
# [5] = tested on: LDLR mRNA expression in HepG2 cells; test: LDLR mRNA expression in HepG2 cells, quantitative real-time RT-PCR (Example 12); format: cell-based, human; conditions: Homo sapiens, 24 hours; for fold induction at 10 µM: read-out: Activity on LDLR mRNA at 10 uM (fold of control); for fold induction at 40 µM: read-out: Activity on LDLR mRNA at 40 uM (fold of control)
# Method: as §1
# [6] = tested on: LDL ligand uptake activity in HepG2 cells; test: DiI-LDL uptake in HepG2 cells (Example 12); format: cell-based, human
# Method: The combined beneficial effects of these novel compounds on elevation of LDLR mRNA levels likely through the mechanism of mRNA stabilization and their inhibitory activity towards PCSK9, the secreted protease that degrades LDLR protein, result in strong increases in LDL ligand uptake activity through increased receptor surface abundance. […] Briefly, HepG2 cells (2×10^5 cells/well) in 24-well culture plates were treated with various compounds at 10 and 40 uM concentrations for 20 hours. The fluorescent 1.1′-dioctadecyl-3,3,3′,3′-tetramethylindocarbocyanin perchlorate (DiI-LDL) (Biomedical Technologies, Stoughton, Mass.) at a concentration of 2 μg/ml was added to cells at the end of treatment. After 4 hours, the medium was removed; cells were washed with cold PBS, and were examined immediately under a fluorescent microscope (Nikon) at 200× amplification. The fluorescent intensity in compound-treated cells was compared to that in untreated control cells. […]
# [7] = Wistar, rat, plasma, male rats, IV (2 mg/kg), mean
# [8] = Wistar, rat, plasma, male rats, PO (10 mg/kg), mean
# [9] = 10 uM, 20 hours (first symbol of cell)
# [10] = 40 uM, 20 hours (second symbol of cell)
SMILES,Activity on LDLR mRNA expression (Fold of control) [2],Activity on DiI-LDL uptake [3],PCSK9 mRNA level at 10 uM (fold of control) [4],Activity on PCSK9 mRNA reduction at 40 uM (fold of control) [4],fold induction at 10 µM [5],fold induction at 40 µM [5],"Activity in LDL uptake (relative to control) [6, 9]","Activity in LDL uptake (relative to control) [6, 10]",further results
"COc1cc2c(cc1OC)C1Cc3ccc(OC)c(OS(=O)(=O)c4cccc(F)c4)c3CN1CC2 (racemic) [Compound 141, 2,3,10-Trimethoxy-5,6,7,8,13,13a-hexahydroisoquinolino[2,1-b]isoquinolin-9-yl 3-fluorobenzenesulfonate phosphate Salt]",–,–,–,–,–,–,–,–,"AUC(0-inf) [1, 7]: 1080 ng·h/mL; AUC(0-t) [1, 7]: 1070 ng·h/mL; Cmax [1, 7]: 1550 ng/mL; Tmax [1, 7]: 0.083 h; MRT last [1, 7]: 1.46 h; MRT inf [1, 7]: 1.62 h; Vd ([1]; Wistar, rat, plasma, male rats, IV (2 mg/kg), mean, read-out: Vz): 8.31 L/kg; AUC(0-inf) [1, 8]: 3380 ng·h/mL; AUC(0-t) [1, 8]: 3360 ng·h/mL; Cmax [1, 8]: 826 ng/mL; Tmax [1, 8]: 0.33 h; MRT last [1, 8]: 4.25 h; MRT inf [1, 8]: 4.44 h; pharmacokinetic properties and bioavailability, in words ([1]; male Wistar rats, iv and p.o.): excellent pharmacokinetic properties and good bioavailability; CLz ([1]; male rats, IV (2 mg/kg), mean): 31.2 mL/min/kg; t1/2z ([1]; male rats, IV (2 mg/kg), mean): 3.16 h; F* ([1]; male rats, PO (10 mg/kg) vs IV (2 mg/kg), mean): 62.75%; t1/2z ([1]; male rats, PO (10 mg/kg), mean): 3.62 h"
"COc1ccc2c(c1OC)CN1CCc3cc4c(cc3C1C2Cc1ccccc1)OCO4 (stereo not shown) [Compound 1, 9,10-dimethoxy-13-benzyl-5,6,7,8,13,13a-hexahydro-2H-1,3-dioxolano[4,5-g]isoquinolino[3,2-a]isoquinoline]",1.56 ± 0.86 Fold of control,+,–,–,–,–,–,–,–
"COc1ccc2c(c1OCc1ccccc1[N+](=O)[O-])CN1CCc3cc4c(cc3C1C2)OCO4 (stereo not shown) [Compound 26, 10-methoxy-9-[(2-nitrophenyl)methoxy]-5,6,7,8,13,13a-hexahydro-2H-1,3-dioxolano[4,5-g]isoquinolino[3,2-a]isoquinoline]",1.29 ± 0.10 Fold of control,++,–,–,–,–,–,–,–
"COc1ccc2c(c1OC)C(CC(C)=O)N1CCc3cc4c(cc3C1=C2)OCO4 (stereo not shown) [Compound 30, 1-(9,10-dimethoxy-5,6,7,8-tetrahydro-2H-1,3-dioxolano[4,5-g]isoquinolino[3,2-a]isoquinolin-8-yl)acetone]",1.47 ± 0.13 Fold of control,+,–,–,–,–,–,–,–
"COc1ccc2c(c1O)CN1CCc3cc4c(cc3C1C2)OCO4 (stereo not shown) [Compound 34, 10-methoxy-5,6,7,8,13,13a-hexahydro-2H-1,3-dioxolano[4,5-g]isoquinolino[3,2-a]isoquinoline-9-ol]",1.76 ± 0.17 Fold of control,++,–,–,–,–,–,–,–
"COc1cc2c(cc1C(=O)NCCO)C1Cc3ccc(OC)c(OS(=O)(=O)c4ccccc4)c3CN1CC2 (stereo not shown) [Compound 137, 2-[N-(2-hydroxyethyl)carbamoyl]-3,10-dimethoxy-5,6,7,8,13,13a-hexahydroisoquinolino[2,1-b]isoquinolin-9-yl benzenesulfonate]",–,–,0.45 ± 0.06 fold of control,0.34 ± 0.00 fold of control,1.61 ± 0.19,2.66 ± 0.04,+,+++,–
"COc1cc2c(cc1OCCO)CCN1Cc3c(ccc(OC)c3OS(=O)(=O)c3ccccc3)CC21 (stereo not shown) [Compound 138, 3-(2-Hydroxyethoxy)-2,10-dimethoxy-5,6,7,8,13,13a-hexahydroisoquinolino[2,1-b]isoquinolin-9-yl benzenesulfonate]",–,–,0.63 ± 0.14 fold of control,0.35 ± 0.02 fold of control,1.6 ± 0.29,2.45 ± 0.2,+,+++,–
"COc1cc2c(cc1OC)C1C(C)c3ccc(OC)c(OS(=O)(=O)c4ccccc4)c3CN1CC2 (stereo not shown) [Compound 139, 2,3,10-Trimethoxy-13-methyl-5,6,7,8,13,13a-hexahydro isoquinolino[2,1-b]isoquinolin-9-yl benzenesulfonate]",–,–,0.46 ± 0.04 fold of control,0.27 ± 0.02 fold of control,11.5 ± 1.29,3.02 ± 0.34,++/++,++/++,–
"COc1ccc2c(c1)CCN1Cc3c(ccc(OC)c3OS(=O)(=O)c3ccccc3)C(C)C21 (stereo not shown) [Compound 140, 3,10-Dimethoxy-13-methyl-5,6,7,8,13,13a-hexahydro isoquinolino[2,1-b]isoquinolin-9-yl benzenesulfonate]",–,–,0.43 ± 0.08 fold of control,0.51 ± 0.08 fold of control,6.65 ± 0.68,8.6 ± 2,++/++,++/++,–
"COc1ccc2c(c1OS(=O)(=O)c1ccccc1)CN1CCc3cc(OCCO)ccc3C1C2 (stereo not shown) [Compound 142, 3-(2-Hydroxyethoxy)-10-methoxy-5,6,7,8,13,13a-hexahydroisoquinolino[2,1-b]isoquinolin-9-yl benzenesulfonate]",–,–,0.62 ± 0.07 fold of control,0.52 ± 0.02 fold of control,2.64 ± 0.01,13 ± 1.96,+,++,–
"COc1cc2c(cc1OCCO)C1Cc3ccc(OC)c(OS(=O)(=O)c4ccccc4)c3CN1CC2 (stereo not shown) [Compound 143, 2-(2-hydroxyethoxy)-3,10-dimethoxy-5,6,7,8,13,13a-hexahydroisoquinolino[2,1-b]isoquinolin-9-yl benzenesulfonate]",–,–,1.09 ± 0.09 fold of control,0.48 ± 0.06 fold of control,1.87 ± 0.03,15 ± 1.68,–,++,–
